According to patent publication US20240051937A1, “ISOINDOLINONE AMIDE COMPOUNDS USEFUL TO TREAT DISEASES ASSOCIATED WITH GSPT1” (Monte Rosa Therapeutics, Inc., priority 2021, published 2024):
Like-named read-outs stand apart in the source and are kept apart here.

Target: GSPT1 (Homo sapiens, UniProt P15170+Q96SW2)
Assay: Immunofluorescence assay for GSPT1 degradation in CAL-Si cells
Assay type: cell-based
Set-up: CAL-Si cells were purchased from DSMZ (cat. Number ACC302); host or cells: CAL-Si (CAL-51) cells
Settings: 6 hours treatment
Method: The representative compounds were tested in an immunofluorescence assay for their activity to bind to degrade GSPT1. CAL-Si cells were purchased from DSMZ (cat. Number ACC302), sub-cultured in 90% Dulbecco's MEM (4.5 g/L glucose, Gibco 11965)+10% […] inactivated FBS (BioConcept, 2-01F136I) and incubated at 37° C., 5% CO2. For the assay, imaging microtiterplate Cell Carrier 96 Ultra (Perkin Elmer 6055302) were pre-coated with Fibronectin (Sigma F085, 30 μl at 0.2 μg/ml) in PBS (100 μl, Gibco 14190) for 45 min at room temperature, rinsed with PBS and CAL-Si cells (30K cells/well) were plated and let to adhere overnight. Cells were treated with compounds typically using a serial dilution ranging from 30 μM to 0.1 nM for 6 hours. Compounds were stored at 10 mM DMSO stocks. Vehicle (DMSO), positive (CC-885, 10 μM) and rescue controls (positive control plus 0.2 μM bortezomib) were also included at this stage. Cells were subsequently rinsed with PBS and fixed in 10% Formalin solution (50 μl, Sigma HT5011)) for 20 mins at room temperature. Following three consecutive PBS washes (100 μl), cells were permeabilized in 0.1% Triton X-100 in PBS (Sigma 93443, 50 μl) for 15 mins at room temperature. Following three further PBS washes, […] blocking buffer (1% BSA, Sigma A4503, in PBS) was added for 45 min for signal-to-noise reduction.
Primary antibody (human GSPT1, Sigma HPA052488) was diluted in blocking buffer (dil.1/300, 35 μl/well) and incubated with the cells overnight at 4° C. After three PBS washes, Alexa-fluor 488 coupled secondary antibodies (Invitrogen, A32731, dil.1/1000), Alexa-fluor 647-Phalloidin (Invitrogen, A22287, dil.1/200) and DAPI (Thermo, #62248, dil.1/1000) were diluted in blocking buffer and incubated with the samples for 2 hours at room temperature. After three final PBS washes, samples were conserved in […] PBS in the dark, until measurement. Image acquisition was performed on the Operetta High-Content Imager (Perkin-Elmer). Fluorescence intensity of Alexa-Fluor 488 (GSPT1), Alexa-Fluor 647 (Actin) and DAPI (Nucleus) were measured. For the determination of GSPT1 DC50 values, a custom algorithm implemented in the PerkinElmer image analysis software Harmony-Acapella® was developed. After user-defined setting of adjustment parameters, the analysis was run identically without human intervention for all image fields. DAPI staining of the nuclei was used to determine the location of cells using standard nuclei detection modules. Segmentation artifacts were removed by threshold-based filters for area, roundness and intensity. The outline of the cells was determined analogously from the sum of the normalized, smoothed DAPI and Actin channel, starting from each nucleus.
The Alexa-Fluor 488 (GSPT1) signal intensity in each cell was finally measured, in order to obtain a Mean intensity per cell. GSPT1 degradation (DC50) was calculated after normalization to controls and data import in CDD vault Database, using non-linear regression.

[1] = read-out: Code: activity for GSPT1 degradation (DC50)
[2] = GSPT1 degradation, read-out: DC50

GSPT1, sequence (P15170 whole entry): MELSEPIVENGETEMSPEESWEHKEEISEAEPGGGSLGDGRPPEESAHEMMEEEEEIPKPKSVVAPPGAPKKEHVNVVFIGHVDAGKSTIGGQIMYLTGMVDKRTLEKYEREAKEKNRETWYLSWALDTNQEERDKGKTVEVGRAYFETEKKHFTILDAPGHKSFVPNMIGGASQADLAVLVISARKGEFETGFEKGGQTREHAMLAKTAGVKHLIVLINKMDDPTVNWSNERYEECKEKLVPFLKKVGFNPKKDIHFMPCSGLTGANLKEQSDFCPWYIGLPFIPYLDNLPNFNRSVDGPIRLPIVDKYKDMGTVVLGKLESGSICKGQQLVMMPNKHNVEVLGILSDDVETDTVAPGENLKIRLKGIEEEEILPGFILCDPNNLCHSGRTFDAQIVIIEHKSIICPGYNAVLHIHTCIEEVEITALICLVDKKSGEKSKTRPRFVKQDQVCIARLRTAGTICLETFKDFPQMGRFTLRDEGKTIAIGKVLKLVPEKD
GSPT1, sequence (Q96SW2 whole entry): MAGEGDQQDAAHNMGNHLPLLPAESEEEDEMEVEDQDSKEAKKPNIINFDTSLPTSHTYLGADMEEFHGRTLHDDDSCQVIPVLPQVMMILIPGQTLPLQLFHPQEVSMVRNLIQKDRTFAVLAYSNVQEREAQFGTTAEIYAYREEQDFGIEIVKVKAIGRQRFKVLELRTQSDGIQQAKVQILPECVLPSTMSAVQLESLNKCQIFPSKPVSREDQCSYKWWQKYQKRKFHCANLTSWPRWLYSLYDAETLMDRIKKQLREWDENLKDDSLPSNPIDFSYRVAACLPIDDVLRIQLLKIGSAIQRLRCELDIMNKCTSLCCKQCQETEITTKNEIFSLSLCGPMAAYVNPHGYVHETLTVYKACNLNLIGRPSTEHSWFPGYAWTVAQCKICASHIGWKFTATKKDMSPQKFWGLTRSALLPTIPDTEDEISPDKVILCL
GSPT1, sequence (Q16531 whole entry partner): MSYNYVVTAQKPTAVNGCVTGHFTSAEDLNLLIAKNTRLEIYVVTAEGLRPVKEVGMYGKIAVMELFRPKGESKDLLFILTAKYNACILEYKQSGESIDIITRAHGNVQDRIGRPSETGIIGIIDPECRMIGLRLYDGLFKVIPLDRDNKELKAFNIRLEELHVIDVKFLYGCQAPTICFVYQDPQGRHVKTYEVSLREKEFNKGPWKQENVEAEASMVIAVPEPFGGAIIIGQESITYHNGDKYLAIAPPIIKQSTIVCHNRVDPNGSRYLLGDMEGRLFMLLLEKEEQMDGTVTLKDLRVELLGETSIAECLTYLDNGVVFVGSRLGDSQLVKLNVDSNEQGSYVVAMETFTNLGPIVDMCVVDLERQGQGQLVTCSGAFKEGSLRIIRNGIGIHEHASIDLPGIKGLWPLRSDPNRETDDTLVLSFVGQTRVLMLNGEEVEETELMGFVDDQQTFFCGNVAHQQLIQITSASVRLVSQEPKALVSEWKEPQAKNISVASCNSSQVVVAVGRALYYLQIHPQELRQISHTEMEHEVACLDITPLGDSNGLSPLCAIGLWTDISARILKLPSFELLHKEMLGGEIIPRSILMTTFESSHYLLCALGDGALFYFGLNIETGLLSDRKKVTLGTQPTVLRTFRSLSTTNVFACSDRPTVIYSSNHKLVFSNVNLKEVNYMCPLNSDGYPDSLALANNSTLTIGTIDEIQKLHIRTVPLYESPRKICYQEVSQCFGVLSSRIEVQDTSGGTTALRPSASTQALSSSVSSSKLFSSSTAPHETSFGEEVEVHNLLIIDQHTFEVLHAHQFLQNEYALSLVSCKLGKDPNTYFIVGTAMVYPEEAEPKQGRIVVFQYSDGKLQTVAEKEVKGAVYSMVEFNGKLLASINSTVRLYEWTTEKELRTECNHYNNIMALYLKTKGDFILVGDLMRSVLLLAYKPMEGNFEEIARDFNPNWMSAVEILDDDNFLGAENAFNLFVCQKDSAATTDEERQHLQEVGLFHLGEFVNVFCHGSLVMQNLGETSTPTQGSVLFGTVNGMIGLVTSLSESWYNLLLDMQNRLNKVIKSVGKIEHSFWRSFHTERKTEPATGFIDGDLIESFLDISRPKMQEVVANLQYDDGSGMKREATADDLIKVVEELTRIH

Row | DC50 [1] [nM] | DC50 [2] [nM] | SMILES
1 | ≤ 30 | 16 | Cc1ccc(NC(=O)CCc2ccc3c(c2)C(=O)N(C2CCC(=O)NC2=O)C3)cc1Cl (stereo not shown) [Compound 1]
2 | ≤ 30 | 6 | Cc1c(Cl)cc(NC(=O)CCc2ccc3c(c2)C(=O)N(C2CCC(=O)NC2=O)C3)cc1CN1CCOCC1 (stereo not shown) [Compound 2]
